Reference: US9273077B2, “Phosphorus derivatives as kinase inhibitors” (ARIAD Pharmaceuticals, Inc., priority 2008, dated 2016)

Biological target: T1, ALK (Homo sapiens, UniProt Q9UM73)
T1 construct: Kinases are expressed as either kinase domains or full length constructs fused to glutathione S-transferase (GST) or polyHistidine tagged fusion proteins; made in house; host or cells: E. coli or Baculovirus-High Five (not specified which for ALK)
Assay: inhibitory potency against ALK (kinase inhibition assay)
Assay type: biochemical
Source text: More specifically, the compounds described herein are screened for kinase inhibition activity as follows. Kinases suitable for use in the following protocol include, but are not limited to: ALK, Jak2, b-Raf, c-Met, Tie-2, FLT3, Abl, Lck, Lyn, Src, Fyn, Syk, Zap-70, Itk, Tec, Btk, EGFR, ErbB2, Kdr, FLT1, Tek, InsR, and AKT.
Kinases are expressed as either kinase domains or full length constructs fused to glutathione S-transferase (GST) or polyHistidine tagged fusion proteins in either E. coli or Baculovirus-High Five expression systems. They are purified to near homogeneity by affinity chromatography as previously described (Lehr et al., 1996; Gish et al., 1995). In some instances, kinases are co-expressed or mixed with purified or partially purified regulatory polypeptides prior to measurement of activity.
Kinase activity and inhibition can be measured by established protocols (see e.g., Braunwalder et al., 1996). In such cases, the transfer of ^33PO4 from ATP to the synthetic substrates poly(Glu, Tyr) 4:1 or poly(Arg, Ser) 3:1 attached to the bioactive surface of microtiter plates is taken as a measure of enzyme activity. After an incubation period, the amount of phosphate transferred is measured by first washing the plate with 0.5% phosphoric acid, adding liquid scintillant, and then counting in a liquid scintillation detector. The IC50 is determined by the concentration of compound that causes a 50% reduction in the amount of ^33P incorporated onto the substrate bound to the plate.
For example, in one method, compounds can be tested for their ability to inhibit kinase activity of baculovirus-expressed ALK using a modification of the ELISA protocol reported for trkA in Angeles, T. S. et al., Anal. Biochem. 1996, 236, 49-55, which is incorporated herein by reference. Phosphorylation of the substrate, phopholipase C-gamma (PLC- ? ) generated as a fusion protein with glutathione-S-transferase (GST) as reported in rotin, D. et al., EMBO J. 1992, 11, 559-567, which is incorporated by reference, can be detected with europium-labeled anti-phosphotyrosine antibody and measured by time-resolved fluorescence (TRF). […] Detection of the phosphorylated product can be performed by adding 100 ? L/well of Eu-N1 labeled PT66 antibody (Perkim Elmer #AD0041). Incubation at 37 degrees C. then proceeds for one hour, followed by addition of 100 ? L enhancement solution (for example Wallac #1244-105). The plate is gently agitated and after thirty minutes, the fluorescence of the resulting solution can be measured (for example using EnVision 2100 (or 2102) multilabel plate reader from Perkin Elmer).
Data analysis can then be performed. IC50 values can be calculated by plotting percent inhibition versus log10 of concentration of compound.
The inhibition of ALK tyrosine kinase activity can also be measured using the recombinant kinase domain of the ALK in analogy to VEDG-R kinase assay described in J. Wood et al., Cancer Res 2000, 60, 2178-2189. In vitro enzyme assays using GST-ALK protein tyrosine kinase can be performed in 96-well plate as a filter binding assay in 20 mMTris.HCl, pH 7.5, 3 mM MgCl2, 10 mM MnCl2, […], 0.1 ? Ci/assay (=30 ? L) [ ? -^33P]-ATP, 2 ? M ATP, 3 ? g/mL poly (Glu, tyr 4:1) Poly-EY (sigma P-0275), 1% DMSO, 25 ng ALK enzyme. Assays can be incubated for 10 min, at ambient temperature. Reactions can be terminated by adding 50 ? L of 125 mM EDTA, and the reaction mixture can be transferred onto a MAIP Multiscreen plate (Millipore, Bedford, Mass.) previously wet with methanol, and rehydrated for 5 minutes with water. Following washing (0.5% H3PO4), plates can be counted in a liquid scintillation counter. IC50 values are calculated by linear regression analysis of the percentage inhibition.

T1 sequence (Q9UM73 19-1620): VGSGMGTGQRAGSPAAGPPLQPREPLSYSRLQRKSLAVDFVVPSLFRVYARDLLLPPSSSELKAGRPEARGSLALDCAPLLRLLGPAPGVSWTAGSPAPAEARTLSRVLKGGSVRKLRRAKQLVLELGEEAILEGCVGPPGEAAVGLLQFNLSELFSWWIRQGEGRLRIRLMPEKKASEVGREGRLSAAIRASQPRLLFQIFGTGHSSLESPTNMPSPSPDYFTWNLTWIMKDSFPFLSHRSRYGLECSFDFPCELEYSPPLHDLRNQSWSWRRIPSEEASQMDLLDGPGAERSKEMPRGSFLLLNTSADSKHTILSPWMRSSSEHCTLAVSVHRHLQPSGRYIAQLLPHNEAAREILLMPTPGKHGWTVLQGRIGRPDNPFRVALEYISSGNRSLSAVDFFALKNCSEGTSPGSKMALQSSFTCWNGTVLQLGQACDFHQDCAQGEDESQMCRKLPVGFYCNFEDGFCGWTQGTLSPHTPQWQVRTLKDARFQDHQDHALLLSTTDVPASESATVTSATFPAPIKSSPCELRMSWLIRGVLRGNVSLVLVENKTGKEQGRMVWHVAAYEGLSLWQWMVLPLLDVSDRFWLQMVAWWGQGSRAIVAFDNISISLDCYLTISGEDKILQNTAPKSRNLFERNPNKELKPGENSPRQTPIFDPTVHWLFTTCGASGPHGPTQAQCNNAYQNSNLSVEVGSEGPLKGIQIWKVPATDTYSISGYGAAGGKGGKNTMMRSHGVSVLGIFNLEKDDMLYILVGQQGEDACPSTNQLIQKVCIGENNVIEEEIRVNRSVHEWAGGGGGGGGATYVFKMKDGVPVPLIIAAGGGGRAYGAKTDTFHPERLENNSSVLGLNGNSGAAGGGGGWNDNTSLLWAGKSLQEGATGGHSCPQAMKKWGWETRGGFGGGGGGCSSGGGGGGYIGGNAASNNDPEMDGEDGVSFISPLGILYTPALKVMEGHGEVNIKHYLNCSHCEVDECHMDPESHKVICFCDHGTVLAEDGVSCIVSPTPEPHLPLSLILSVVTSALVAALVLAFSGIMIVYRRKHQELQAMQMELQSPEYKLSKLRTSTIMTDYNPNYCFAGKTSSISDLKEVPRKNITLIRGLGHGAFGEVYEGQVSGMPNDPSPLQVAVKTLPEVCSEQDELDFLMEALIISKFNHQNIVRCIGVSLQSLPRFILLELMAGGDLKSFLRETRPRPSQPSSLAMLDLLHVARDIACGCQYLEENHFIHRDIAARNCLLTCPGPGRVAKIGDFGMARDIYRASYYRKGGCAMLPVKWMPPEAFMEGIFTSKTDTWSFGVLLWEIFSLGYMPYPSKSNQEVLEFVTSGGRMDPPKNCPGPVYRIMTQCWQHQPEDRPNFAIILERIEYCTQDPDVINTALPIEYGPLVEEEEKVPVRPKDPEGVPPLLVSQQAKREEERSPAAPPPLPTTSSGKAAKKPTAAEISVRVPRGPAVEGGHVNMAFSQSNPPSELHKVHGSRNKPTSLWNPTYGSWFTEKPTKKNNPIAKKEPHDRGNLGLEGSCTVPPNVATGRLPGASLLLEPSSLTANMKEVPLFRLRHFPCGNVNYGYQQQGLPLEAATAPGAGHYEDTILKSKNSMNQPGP

Row | Compound | IC50 [nM]
1 | CP(C)(=O)c1ccc(Nc2ncc(C(F)(F)F)c(NCCc3c[nH]c4ccccc34)n2)cc1 [Example 10, N^2-[4-(dimethylphosphoryl)phenyl]-N^4-[2-(1H-indol-3-yl)ethyl]-5-(trifluoromethyl)pyrimidine-2,4-diamine] | > 10
2 | COc1ccc(P(C)(C)=O)cc1Nc1ncc(Cl)c(Nc2ccccc2S(=O)(=O)C(C)C)n1 [Example 22, 5-Chloro-N^2-[5-(dimethylphosphoryl)-2-methoxyphenyl]-N^4-[2-(propan-2-ylsulfonyl)phenyl]pyrimidine-2,4-diamine] | 2 to 10
3 | CCc1cc(P(C)(C)=O)ccc1Nc1ncc(Cl)c(Nc2ccccc2S(=O)(=O)C(C)C)n1 [Example 24, 5-Chloro-N^2-[4-(dimethylphosphoryl)-2-ethylphenyl]-N^4-[2-(propan-2-ylsulfonyl)phenyl]pyrimidine-2,4-diamine] | < 2
4 | CP(C)(=O)c1ccc(Nc2ncc(C(F)(F)F)c(NCCc3ccc(S(N)(=O)=O)cc3)n2)cc1 [Example 5, 4-(2-{[2-{[4-(dimethylphosphoryl)phenyl]amino}-5-(trifluoromethyl)pyrimidin-4-yl]amino}ethyl)benzenesulfonamide] | > 10
5 | CC(C)S(=O)(=O)c1ccccc1Nc1nc(Nc2ccc(P(C)(C)=O)cc2Cl)ncc1Cl [Example 26, 5-Chloro-N^2-[2-chloro-4-(dimethylphosphoryl)phenyl]-N^4-[2-(propan-2-ylsulfonyl)phenyl]pyrimidine-2,4-diamine] | < 2
6 | COc1cc(N2CCC(N3CCN(C)CC3)CC2)ccc1Nc1ncc(Cl)c(Nc2ccc(P(C)(C)=O)cc2)n1 [Example 19, 5-chloro-N^4-[4-(dimethylphosphoryl)phenyl]-N^2-{2-methoxy-4-[4-(4-methylpiperazin-1-yl)piperidin-1-yl]phenyl}pyrimidine-2,4-diamine] | > 10
7 | COc1cc(P(C)(C)=O)ccc1Nc1ncc(Cl)c(Nc2ccccc2S(=O)(=O)C(C)C)n1 [Example 17, 5-chloro-N-[4-(dimethylphosphoryl)-2-methoxyphenyl]-N^4-[2-(propan-2-ylsulfonyl)phenyl]pyrimidine-2,4-diamine] | < 2
8 | COc1cc(P(C)(C)=O)ccc1Nc1nccc(Nc2ccccc2S(=O)(=O)C(C)C)n1 [Example 20, N^2-[4-(dimethylphosphoryl)-2-methoxyphenyl]-N^4-[2-(propan-2-ylsulfonyl)phenyl]pyrimidine-2,4-diamine] | > 10
9 | COc1cc(P(C)(C)=O)ccc1Nc1ncc(C(F)(F)F)c(Nc2ccccc2S(=O)(=O)C(C)C)n1 [Example 16, N^2-[4-(dimethylphosphoryl)-2-methoxyphenyl]-N^4-[2-(propan-2-ylsulfonyl)phenyl]-5-(trifluoromethyl)pyrimidine-2,4-diamine] | 2 to 10
10 | Cc1cc(C)cc(Nc2nc(Nc3ccc(P(C)(C)=O)cc3)ncc2C(F)(F)F)c1 [Example 14, N^4-(3,5-dimethylphenyl)-N^2-[4-(dimethylphosphoryl)phenyl]-5(trifluoromethyl)pyrimidine-2,4-diamine] | > 10
11 | COc1cc(P2(=O)CCNCC2)ccc1Nc1nccc(Nc2ccccc2S(=O)(=O)C(C)C)n1 [Example 30, N^2-[2-methoxy-4-(4-oxido-1,4-azaphosphinan-4-yl)phenyl]-N^4-[2-(propan-2-ylsulfonyl)phenyl]pyrimidine-2,4-diamine] | 2 to 10
12 | CN1CCN(c2ccc(CNc3nc(Nc4ccc(P(C)(C)=O)cc4)ncc3C(F)(F)F)cc2)CC1 [Example 13, N^2-[4-(dimethylphosphoryl)phenyl]-N^4-[4-(4-methylpiperazin-1-yl)benzyl]-5-(trifluoromethyl)pyrimidine-2,4-diamine] | > 10
13 | COc1cc(P(C)(C)=O)ccc1Nc1nc(Nc2ccccc2S(=O)(=O)C(C)C)c2cc[nH]c2n1 [Example 31, N^2-[4-(dimethylphosphoryl)-2-methoxyphenyl]-N^4-[2-(propan-2-ylsulfonyl)phenyl]-7H-pyrrolo[2,3-d]pyrimidine-2,4-diamine] | < 2
14 | COc1nc(P(C)(C)=O)ccc1Nc1ncc(Cl)c(Nc2ccccc2S(=O)(=O)C(C)C)n1 [Example 32, 5-chloro-N^2-[6-(dimethylphosphoryl)-2-methoxypyridin-3-yl]-N^4-[2-(propan-2-ylsulfonyl)phenyl]pyrimidine-2,4-diamine] | < 2
15 | CP(C)(=O)c1ccc(Nc2ncc(C(F)(F)F)c(NCC34CC5CC(CC(C5)C3)C4)n2)cc1 [Example 12, N^2-[4-(dimethylphosphoryl)phenyl]-N′-(tricyclo[3.3.1.1^3,7]dec-1-ylmethyl)-5-(trifluoromethyl)pyrimidine-2,4-diamine] | > 10
16 | COc1cc(P(C)(C)=O)ccc1Nc1ncc(Cl)c(Nc2ccccc2)n1 [Example 15, 5-chloro-N^2-[4-(dimethylphosphoryl)-2-methoxyphenyl]-N^4-phenylpyrimidine-2,4-diamine] | > 10
17 | COc1cc(P(C)(C)=O)ccc1Nc1ncc(N)c(Nc2ccccc2S(=O)(=O)C(C)C)n1 [Example 28, N^2-[4-(dimethylphosphoryl)-2-methoxyphenyl]-N^4-[2-(propan-2-ylsulfonyl)phenyl]pyrimidine-2,4,5-triamine] | > 10
18 | CN1CCN(Nc2nc(Nc3ccc(P(C)(C)=O)cc3)ncc2C(F)(F)F)CC1 [Example 11, N^2-[4(dimethylphosphoryl)phenyl]-N^4-(4-methylpiperazin-1-yl)-5-(trifluoromethyl) pyrimidine-2,4-diamine] | > 10
19 | Cc1cc(P(C)(C)=O)ccc1Nc1ncc(Cl)c(Nc2ccccc2S(=O)(=O)C(C)C)n1 [Example 23, 5-Chloro-N^2-[4-(dimethylphosphoryl)-2-methylphenyl]-N-[2-(propan-2-ylsulfonyl)phenyl]pyrimidine-2,4-diamine] | < 2
20 | COc1cc(P(C)(C)=O)ccc1Nc1ncc2[nH]c(=O)n(-c3ccccc3S(=O)(=O)C(C)C)c2n1 [Example 29, 2-{[4-(dimethylphosphoryl)-2-methoxyphenyl]amino}-9-[2-(propan-2-ylsulfonyl)phenyl]-7,9-dihydro-8H-purin-8-one] | > 10
21 | CP(C)(=O)c1ccc(Nc2ncc(C(F)(F)F)c(NN3CC4CCCC4C3)n2)cc1 (stereo not drawn) [Example 7, N^2-[4-(dimethylphosphoryl)phenyl]-N^4-(hexahydrocyclopenta[c]pyrrol-2(1H)-yl)-5-(trifluoromethyl)pyrimidine-2,4-diamine] | > 10
22 | CP(C)(=O)c1ccc(Nc2ncc(C(F)(F)F)c(NC3CCCO3)n2)cc1 (stereo not drawn) [Example 6, N^2-[4-(dimethylphosphoryl)phenyl]-N^4-(tetrahydrofuran-2-yl)-5-(trifluoromethyl)pyrimidine-2,4-diamine] | > 10
23 | CP(C)(=O)c1ccc(Nc2ncc(C(F)(F)F)c(NC34CC5CC(CC(C5)C3)C4)n2)cc1 [Example 2, N^2-[4-(dimethylphosphoryl)phenyl]-N′-(tricyclo[3.3.1.1^3,7]dec-1-yl)-5-(trifluoromethyl)pyrimidine-2,4-diamine] | > 10
24 | COc1nc(P(C)(C)=O)cnc1Nc1ncc(Cl)c(Nc2ccccc2S(=O)(=O)C(C)C)n1 [Example 33, 5-chloro-N^2-[5-(dimethylphosphoryl)-3-methoxypyrazin-2-yl]-N^4-[2-(propan-2-ylsulfonyl)phenyl]pyrimidine-2,4-diamine] | > 10
